Assay results reported in PubChem BioAssay (NCI).
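Interpolation was linear, between the two tested concentrations surrounding the appropriate level; five concentrations were tested over 48 hours in 96-well plates. At the GI50, growth is halved. Definition used: TGI = concentration required for complete inhibition of growth.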

Key:
Experiment in all cases: DTP human tumour cell line panel, 48 h
NCI-H522 lung = system: NCI-H522 lung
HS 578T breast = system: HS 578T breast
HCC-2998 colon = system: HCC-2998 colon
HCT-15 colon = system: HCT-15 colon
UO-31 renal = system: UO-31 renal
K-562 leukemia = system: K-562 leukemia
SNB-75 CNS = system: SNB-75 CNS
COLO 205 colon = system: COLO 205 colon
NCI/ADR-RES ovarian = system: NCI/ADR-RES ovarian
PC-3 prostate = system: PC-3 prostate
MCF7 breast = system: MCF7 breast
OVCAR-8 ovarian = system: OVCAR-8 ovarian
SW-620 colon = system: SW-620 colon
SK-OV-3 ovarian = system: SK-OV-3 ovarian
DU-145 prostate = system: DU-145 prostate
U251 CNS = system: U251 CNS
OVCAR-3 ovarian = system: OVCAR-3 ovarian
HOP-92 NSCLC = system: HOP-92 NSCLC
MOLT-4 leukemia = system: MOLT-4 leukemia
IGROV1 ovarian = system: IGROV1 ovarian
SK-MEL-2 melanoma = system: SK-MEL-2 melanoma
A549 NSCLC = system: A549 NSCLC
OVCAR-5 ovarian = system: OVCAR-5 ovarian
SK-MEL-5 melanoma = system: SK-MEL-5 melanoma
SR leukemia = system: SR leukemia
MDA-MB-435 = system: MDA-MB-435
HOP-62 NSCLC = system: HOP-62 NSCLC
HT29 colon = system: HT29 colon
UACC-62 melanoma = system: UACC-62 melanoma
EKVX NSCLC = system: EKVX NSCLC
UACC-257 melanoma = system: UACC-257 melanoma
SF-268 CNS = system: SF-268 CNS
SN12C renal = system: SN12C renal
MALME-3M melanoma = system: MALME-3M melanoma
T-47D breast = system: T-47D breast
NCI-H460 lung = system: NCI-H460 lung
NCI-H23 lung = system: NCI-H23 lung
RXF 393 renal = system: RXF 393 renal
BT-549 breast = system: BT-549 breast
CCRF-CEM leukemia = system: CCRF-CEM leukemia
SNB-19 CNS = system: SNB-19 CNS
ACHN renal = system: ACHN renal
CAKI-1 renal = system: CAKI-1 renal
SF-539 CNS = system: SF-539 CNS
786-0 renal = system: 786-0 renal
MDA-MB-231 breast = system: MDA-MB-231 breast
KM12 colon = system: KM12 colon
HCT-116 colon = system: HCT-116 colon
SF-295 CNS = system: SF-295 CNS
OVCAR-4 ovarian = system: OVCAR-4 ovarian
LOX IMVI melanoma = system: LOX IMVI melanoma
TK-10 renal = system: TK-10 renal
SK-MEL-28 melanoma = system: SK-MEL-28 melanoma
NCI-H226 lung = system: NCI-H226 lung
RPMI-8226 leukemia = system: RPMI-8226 leukemia
A498 renal = system: A498 renal

With CN(CCNC(=S)c1cn(C)c2c1ccc1ccccc12)CCNC(=S)c1cn(C)c2c1ccc1ccccc12 the TGI (NCI-H522 lung) was > 100 µM, the TGI (HS 578T breast) was > 100 µM and the TGI (HCC-2998 colon) was > 100 µM. For the same compound, the TGI (HCT-15 colon) was > 100 µM, the TGI (UO-31 renal) was > 100 µM and the TGI (K-562 leukemia) was > 100 µM. The TGI (SNB-75 CNS) was > 100 µM, the TGI (COLO 205 colon) was > 100 µM and the TGI (NCI/ADR-RES ovarian) was > 100 µM. The TGI (PC-3 prostate) was > 100 µM, the TGI (MCF7 breast) was > 100 µM and the TGI (OVCAR-8 ovarian) was > 100 µM. For the same compound, the TGI (SW-620 colon) was > 100 µM, the TGI (SK-OV-3 ovarian) was > 100 µM and the TGI (DU-145 prostate) was > 100 µM. The TGI (U251 CNS) was > 100 µM, the TGI (OVCAR-3 ovarian) was > 100 µM and the TGI (HOP-92 NSCLC) was > 100 µM. For the same compound, the TGI (MOLT-4 leukemia) was > 100 µM, the TGI (IGROV1 ovarian) was > 100 µM and the TGI (SK-MEL-2 melanoma) was > 100 µM. For the same compound, the TGI (A549 NSCLC) was > 100 µM, the TGI (OVCAR-5 ovarian) was > 100 µM and the TGI (SK-MEL-5 melanoma) was > 100 µM. For the same compound, the TGI (SR leukemia) was > 100 µM, the TGI (MDA-MB-435) was > 100 µM and the TGI (HOP-62 NSCLC) was > 100 µM. The TGI (HT29 colon) was > 100 µM, the TGI (UACC-62 melanoma) was > 100 µM and the TGI (EKVX NSCLC) was > 100 µM. The TGI (UACC-257 melanoma) was > 100 µM, the TGI (SF-268 CNS) was > 100 µM and the TGI (SN12C renal) was > 100 µM. The TGI (MALME-3M melanoma) was > 100 µM, the TGI (T-47D breast) was 28.6 µM and the TGI (NCI-H460 lung) was > 100 µM. The TGI (NCI-H23 lung) was > 100 µM, the TGI (RXF 393 renal) was 7.47 µM and the TGI (BT-549 breast) was > 100 µM. The TGI (CCRF-CEM leukemia) was > 100 µM, the TGI (SNB-19 CNS) was > 100 µM and the TGI (ACHN renal) was > 100 µM. The TGI (CAKI-1 renal) was > 100 µM, the TGI (SF-539 CNS) was > 100 µM and the TGI (786-0 renal) was > 100 µM. For the same compound, the TGI (MDA-MB-231 breast) was > 100 µM, the TGI (KM12 colon) was > 100 µM and the TGI (HCT-116 colon) was > 100 µM. For the same compound, the TGI (SF-295 CNS) was > 100 µM, the TGI (OVCAR-4 ovarian) was > 100 µM and the TGI (LOX IMVI melanoma) was > 100 µM. The TGI (TK-10 renal) was > 100 µM and the TGI (SK-MEL-28 melanoma) was > 100 µM.
With CSC1=Nc2c(c(C)c(-c3ccccc3)n2COC(CO)CO)C2=NC(=O)CN12 the GI50 (NCI-H226 lung) was 88.2 µM, the TGI (NCI-H226 lung) was > 100 µM and the GI50 (NCI-H522 lung) was > 100 µM. For the same compound, the TGI (NCI-H522 lung) was > 100 µM, the GI50 (HS 578T breast) was > 100 µM and the TGI (HS 578T breast) was > 100 µM. For the same compound, the GI50 (HCC-2998 colon) was > 100 µM, the TGI (HCC-2998 colon) was > 100 µM and the GI50 (HCT-15 colon) was > 100 µM. The TGI (HCT-15 colon) was > 100 µM, the GI50 (UO-31 renal) was > 100 µM and the TGI (UO-31 renal) was > 100 µM. For the same compound, the GI50 (K-562 leukemia) was > 100 µM, the TGI (K-562 leukemia) was > 100 µM and the GI50 (RPMI-8226 leukemia) was > 100 µM. For the same compound, the TGI (RPMI-8226 leukemia) was > 100 µM, the GI50 (SNB-75 CNS) was 58.9 µM and the TGI (SNB-75 CNS) was > 100 µM. For the same compound, the GI50 (COLO 205 colon) was > 100 µM, the TGI (COLO 205 colon) was > 100 µM and the GI50 (NCI/ADR-RES ovarian) was > 100 µM. For the same compound, the TGI (NCI/ADR-RES ovarian) was > 100 µM, the GI50 (PC-3 prostate) was > 100 µM and the TGI (PC-3 prostate) was > 100 µM. For the same compound, the GI50 (MCF7 breast) was > 100 µM, the TGI (MCF7 breast) was > 100 µM and the GI50 (OVCAR-8 ovarian) was > 100 µM. The TGI (OVCAR-8 ovarian) was > 100 µM, the GI50 (A498 renal) was > 100 µM and the TGI (A498 renal) was > 100 µM. The GI50 (SW-620 colon) was > 100 µM, the TGI (SW-620 colon) was > 100 µM and the GI50 (SK-OV-3 ovarian) was > 100 µM. The TGI (SK-OV-3 ovarian) was > 100 µM, the GI50 (DU-145 prostate) was > 100 µM and the TGI (DU-145 prostate) was > 100 µM. For the same compound, the GI50 (U251 CNS) was > 100 µM, the TGI (U251 CNS) was > 100 µM and the GI50 (OVCAR-3 ovarian) was > 100 µM. The TGI (OVCAR-3 ovarian) was > 100 µM, the GI50 (HOP-92 NSCLC) was > 100 µM and the TGI (HOP-92 NSCLC) was > 100 µM. For the same compound, the GI50 (MOLT-4 leukemia) was > 100 µM, the TGI (MOLT-4 leukemia) was > 100 µM and the GI50 (IGROV1 ovarian) was 0.421 µM. The TGI (IGROV1 ovarian) was 42.8 µM, the GI50 (SK-MEL-2 melanoma) was > 100 µM and the TGI (SK-MEL-2 melanoma) was > 100 µM. The GI50 (A549 NSCLC) was > 100 µM, the TGI (A549 NSCLC) was > 100 µM and the GI50 (OVCAR-5 ovarian) was > 100 µM. The TGI (OVCAR-5 ovarian) was > 100 µM, the GI50 (SK-MEL-5 melanoma) was > 100 µM and the TGI (SK-MEL-5 melanoma) was > 100 µM. The GI50 (SR leukemia) was > 100 µM, the TGI (SR leukemia) was > 100 µM and the GI50 (MDA-MB-435) was > 100 µM. The TGI (MDA-MB-435) was > 100 µM, the GI50 (HOP-62 NSCLC) was 98.2 µM and the TGI (HOP-62 NSCLC) was > 100 µM. The GI50 (HT29 colon) was > 100 µM, the TGI (HT29 colon) was > 100 µM and the GI50 (UACC-62 melanoma) was > 100 µM. For the same compound, the TGI (UACC-62 melanoma) was > 100 µM, the GI50 (EKVX NSCLC) was > 100 µM and the TGI (EKVX NSCLC) was > 100 µM. For the same compound, the GI50 (UACC-257 melanoma) was > 100 µM, the TGI (UACC-257 melanoma) was > 100 µM and the GI50 (SF-268 CNS) was > 100 µM. For the same compound, the TGI (SF-268 CNS) was > 100 µM, the GI50 (SN12C renal) was > 100 µM and the TGI (SN12C renal) was > 100 µM. The GI50 (MALME-3M melanoma) was > 100 µM, the TGI (MALME-3M melanoma) was > 100 µM and the GI50 (T-47D breast) was > 100 µM. For the same compound, the TGI (T-47D breast) was > 100 µM, the GI50 (NCI-H460 lung) was > 100 µM and the TGI (NCI-H460 lung) was > 100 µM. The GI50 (NCI-H23 lung) was > 100 µM, the TGI (NCI-H23 lung) was > 100 µM and the GI50 (RXF 393 renal) was > 100 µM. For the same compound, the TGI (RXF 393 renal) was > 100 µM, the GI50 (BT-549 breast) was > 100 µM and the TGI (BT-549 breast) was > 100 µM. For the same compound, the GI50 (CCRF-CEM leukemia) was > 100 µM, the TGI (CCRF-CEM leukemia) was > 100 µM and the GI50 (SNB-19 CNS) was > 100 µM. For the same compound, the TGI (SNB-19 CNS) was > 100 µM, the GI50 (ACHN renal) was > 100 µM and the TGI (ACHN renal) was > 100 µM. The GI50 (CAKI-1 renal) was > 100 µM, the TGI (CAKI-1 renal) was > 100 µM and the GI50 (SF-539 CNS) was > 100 µM. The TGI (SF-539 CNS) was > 100 µM, the GI50 (786-0 renal) was > 100 µM and the TGI (786-0 renal) was > 100 µM. The GI50 (MDA-MB-231 breast) was > 100 µM, the TGI (MDA-MB-231 breast) was > 100 µM and the GI50 (KM12 colon) was > 100 µM. For the same compound, the TGI (KM12 colon) was > 100 µM, the GI50 (HCT-116 colon) was > 100 µM and the TGI (HCT-116 colon) was > 100 µM. For the same compound, the GI50 (SF-295 CNS) was > 100 µM, the TGI (SF-295 CNS) was > 100 µM and the GI50 (OVCAR-4 ovarian) was > 100 µM. For the same compound, the TGI (OVCAR-4 ovarian) was > 100 µM, the GI50 (LOX IMVI melanoma) was > 100 µM and the TGI (LOX IMVI melanoma) was > 100 µM. For the same compound, the GI50 (TK-10 renal) was > 100 µM, the TGI (TK-10 renal) was > 100 µM and the GI50 (SK-MEL-28 melanoma) was > 100 µM. For the same compound, the TGI (SK-MEL-28 melanoma) was > 100 µM.
